Measurements published in ChEMBL document CHEMBL1156835, “Discovery of new SCH 39166 analogs as potent and selective dopamine D1 receptor antagonists” (Bioorg Med Chem Lett, 2010).

Legend:
[1] = target: D(1B) dopamine receptor (Homo sapiens, UniProt P21918); assay: Binding affinity to dopamine D5 receptor
[2] = target: D(2) dopamine receptor (Homo sapiens, UniProt P14416); assay: Binding affinity to dopamine D2 receptor
[3] = target: D(1A) dopamine receptor (Homo sapiens, UniProt P21728); assay: Binding affinity to dopamine D1 receptor
[4] = AUC in rat; assay type: ADME, organism-based; details: plasma
[5] = target: T1, D(4) dopamine receptor (Homo sapiens, UniProt P21917); assay: Binding affinity to dopamine D4 receptor
T1 sequence (P21917 whole entry): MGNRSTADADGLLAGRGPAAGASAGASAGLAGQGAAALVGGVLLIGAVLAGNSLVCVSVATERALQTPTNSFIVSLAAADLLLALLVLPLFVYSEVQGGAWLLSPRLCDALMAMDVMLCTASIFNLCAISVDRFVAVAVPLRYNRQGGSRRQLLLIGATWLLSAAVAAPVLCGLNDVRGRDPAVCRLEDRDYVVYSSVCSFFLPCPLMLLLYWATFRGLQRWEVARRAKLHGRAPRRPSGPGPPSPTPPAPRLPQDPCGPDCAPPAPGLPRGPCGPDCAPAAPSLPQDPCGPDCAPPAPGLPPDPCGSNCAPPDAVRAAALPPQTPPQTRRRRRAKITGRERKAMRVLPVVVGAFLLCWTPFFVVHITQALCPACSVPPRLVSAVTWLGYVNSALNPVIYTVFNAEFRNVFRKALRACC

[6] = Oral bioavailability in rat; assay type: ADME, organism-based; details: in vivo
[7] = Selectivity ratio, Ki for dopamine D1 receptor to Ki for dopamine D2 receptor

Sequence of D(1B) dopamine receptor (P21918 whole entry): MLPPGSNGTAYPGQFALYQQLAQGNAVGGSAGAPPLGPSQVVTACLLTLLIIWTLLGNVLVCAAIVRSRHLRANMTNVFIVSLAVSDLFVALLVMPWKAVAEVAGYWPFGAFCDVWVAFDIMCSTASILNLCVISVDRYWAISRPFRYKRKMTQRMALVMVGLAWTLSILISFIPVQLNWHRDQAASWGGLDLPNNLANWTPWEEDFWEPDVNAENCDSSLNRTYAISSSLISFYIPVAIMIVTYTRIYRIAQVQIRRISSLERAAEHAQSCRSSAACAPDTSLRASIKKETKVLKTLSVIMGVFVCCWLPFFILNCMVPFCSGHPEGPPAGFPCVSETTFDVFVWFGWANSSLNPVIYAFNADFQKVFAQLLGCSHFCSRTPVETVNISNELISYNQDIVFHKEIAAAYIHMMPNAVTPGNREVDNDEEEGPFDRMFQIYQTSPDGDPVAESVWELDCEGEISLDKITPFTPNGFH
Sequence of D(1A) dopamine receptor (P21728 whole entry): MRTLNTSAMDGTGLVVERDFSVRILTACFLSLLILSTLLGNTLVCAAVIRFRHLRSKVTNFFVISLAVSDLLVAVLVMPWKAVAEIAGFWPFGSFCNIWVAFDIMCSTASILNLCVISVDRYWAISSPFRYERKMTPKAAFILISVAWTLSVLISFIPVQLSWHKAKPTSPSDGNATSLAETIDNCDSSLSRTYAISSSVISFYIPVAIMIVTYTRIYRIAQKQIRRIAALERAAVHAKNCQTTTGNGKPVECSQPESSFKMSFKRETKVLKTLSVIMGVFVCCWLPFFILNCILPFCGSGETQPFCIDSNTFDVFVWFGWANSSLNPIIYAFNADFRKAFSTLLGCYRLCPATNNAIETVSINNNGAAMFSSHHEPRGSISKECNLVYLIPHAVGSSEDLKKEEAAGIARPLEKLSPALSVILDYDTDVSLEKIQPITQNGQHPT
Sequence of D(2) dopamine receptor (P14416 whole entry): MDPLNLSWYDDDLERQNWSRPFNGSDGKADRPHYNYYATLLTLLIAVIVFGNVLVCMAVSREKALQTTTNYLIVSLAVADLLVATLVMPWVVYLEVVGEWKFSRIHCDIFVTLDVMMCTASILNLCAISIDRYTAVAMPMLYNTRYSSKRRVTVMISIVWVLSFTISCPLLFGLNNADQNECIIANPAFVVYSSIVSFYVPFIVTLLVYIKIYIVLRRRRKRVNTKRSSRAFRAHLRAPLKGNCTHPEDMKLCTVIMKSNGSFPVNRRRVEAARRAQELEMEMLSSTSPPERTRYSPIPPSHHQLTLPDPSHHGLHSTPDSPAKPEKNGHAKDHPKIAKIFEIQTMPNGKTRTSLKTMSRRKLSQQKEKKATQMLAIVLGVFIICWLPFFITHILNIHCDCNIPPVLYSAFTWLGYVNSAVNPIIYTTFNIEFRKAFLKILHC

Structure (SMILES)	Ki [1] [nM]	Ki [2] [nM]	Ki [3] [nM]	AUC [4] [ng·h/mL]	Ki [5] [nM]	bioavailability [6] [%]	Ratio Ki [7]
CN1CCc2cc(Cl)c(O)cc2[C@H]2c3ccc(NS(C)(=O)=O)cc3CC[C@@H]21	5.8	3000	0.5	2490	> 10000	29	
CN1CCc2cc(Cl)c(O)cc2[C@H]2c3cccc(NS(C)(=O)=O)c3CC[C@@H]21		1000	4.7				
CN1CCc2cc(Cl)c(O)cc2[C@@H](c2ccc(CNc3ccccc3)cc2)C1		2000	2				
CCOC(=O)Nc1ccc2c(c1)CC[C@H]1[C@H]2c2cc(O)c(Cl)cc2CCN1C	3.3	3900	1.4		> 10000		
CCC(=O)Nc1cccc2c1CC[C@H]1[C@H]2c2cc(O)c(Cl)cc2CCN1C		500	2.3				
CCNC(=O)Nc1cccc2c1CC[C@H]1[C@H]2c2cc(O)c(Cl)cc2CCN1C		900	2.4				
CN1CCc2cc(Cl)c(O)cc2[C@H]2c3cccc(N)c3CC[C@@H]21	7	2100	2.8		> 10000		
CCS(=O)(=O)Nc1cccc2c1CC[C@H]1[C@H]2c2cc(O)c(Cl)cc2CCN1C		618	5.8				
CCS(=O)(=O)Nc1ccc2c(c1)CC[C@H]1[C@H]2c2cc(O)c(Cl)cc2CCN1C	5.6	3300	0.7		> 10000		
CN1CCc2cc(Cl)c(O)cc2[C@@H](c2ccc(CN(Cc3ccccc3)c3ccc(F)cc3F)cc2)C1		552	0.7				
CC(=O)N(Cc1ccc([C@H]2CN(C)CCc3cc(Cl)c(O)cc32)cc1)C1CCC1	13	159	0.2		> 10000		
CN1CCc2cc(Cl)c(O)cc2[C@H]2c3cc(CN4CCN(c5ccccn5)CC4)ccc3CC[C@@H]21		1.3	152				117
CN1CCc2cc(Cl)c(O)cc2[C@H]2c3ccc(NC(=O)Nc4c(Cl)cccc4Cl)cc3CC[C@@H]21		1090	0.7				
CN1CCc2cc(Cl)c(O)cc2[C@H]2c3cccc(NC(=O)C4CC4)c3CC[C@@H]21		2140	5.7				
CN1CCc2cc(Cl)c(O)cc2[C@H]2c3ccccc3CC[C@@H]21 [ECOPIPAM]				156		0.6	
CN1CCc2cc(Cl)c(O)cc2[C@@H](c2ccc(CNC3CCC3)cc2)C1	3.9	2000			> 10000		
CN1CCc2cc(Cl)c(O)cc2[C@H]2c3ccc(NC(=O)C4CC4)cc3CC[C@@H]21		> 10000	2.3				
CCNC(=O)Nc1ccc2c(c1)CC[C@H]1[C@H]2c2cc(O)c(Cl)cc2CCN1C	7.1	6000	1.5		> 10000		
CN1CCc2cc(Cl)c(O)cc2[C@H]2c3cc(CN4CCCCC4)ccc3CC[C@@H]21		26	225				8.7
CN1CCc2cc(Cl)c(O)cc2[C@H]2c3ccc(N)cc3CC[C@@H]21	8.3	5400	7		> 10000		
CN1CCc2cc(Cl)c(O)cc2[C@H]2c3cccc(NC(=O)Nc4c(Cl)cccc4Cl)c3CC[C@@H]21		566	7.1				
CN1CCc2cc(Cl)c(O)cc2[C@@H](c2ccc(CN(C)S(C)(=O)=O)cc2)C1		6000	0.5				
CN1CCc2cc(Cl)c(O)cc2[C@@H](c2ccc(CN(C3CCC3)S(C)(=O)=O)cc2)C1	5.9	2000	0.5		> 10000		
CN1CCc2cc(Cl)c(O)cc2[C@@H](c2ccc(CN(C)S(=O)(=O)c3ccccc3)cc2)C1	1.2	331	0.6		4330		
